The IC50 is the concentration needed to halve the response being measured.

A value given as a limit tells only on which side of the number the result lay.

The target in the first experiment is PI3K-alpha (Homo sapiens, UniProt P42336). Briefly: PI3K-alpha fluorescence polarization assay. It counts as biochemical. The settings on record: PI3Kα Avg. IC50.
Sequence of PI3K-alpha (P42336 whole entry, species assumed): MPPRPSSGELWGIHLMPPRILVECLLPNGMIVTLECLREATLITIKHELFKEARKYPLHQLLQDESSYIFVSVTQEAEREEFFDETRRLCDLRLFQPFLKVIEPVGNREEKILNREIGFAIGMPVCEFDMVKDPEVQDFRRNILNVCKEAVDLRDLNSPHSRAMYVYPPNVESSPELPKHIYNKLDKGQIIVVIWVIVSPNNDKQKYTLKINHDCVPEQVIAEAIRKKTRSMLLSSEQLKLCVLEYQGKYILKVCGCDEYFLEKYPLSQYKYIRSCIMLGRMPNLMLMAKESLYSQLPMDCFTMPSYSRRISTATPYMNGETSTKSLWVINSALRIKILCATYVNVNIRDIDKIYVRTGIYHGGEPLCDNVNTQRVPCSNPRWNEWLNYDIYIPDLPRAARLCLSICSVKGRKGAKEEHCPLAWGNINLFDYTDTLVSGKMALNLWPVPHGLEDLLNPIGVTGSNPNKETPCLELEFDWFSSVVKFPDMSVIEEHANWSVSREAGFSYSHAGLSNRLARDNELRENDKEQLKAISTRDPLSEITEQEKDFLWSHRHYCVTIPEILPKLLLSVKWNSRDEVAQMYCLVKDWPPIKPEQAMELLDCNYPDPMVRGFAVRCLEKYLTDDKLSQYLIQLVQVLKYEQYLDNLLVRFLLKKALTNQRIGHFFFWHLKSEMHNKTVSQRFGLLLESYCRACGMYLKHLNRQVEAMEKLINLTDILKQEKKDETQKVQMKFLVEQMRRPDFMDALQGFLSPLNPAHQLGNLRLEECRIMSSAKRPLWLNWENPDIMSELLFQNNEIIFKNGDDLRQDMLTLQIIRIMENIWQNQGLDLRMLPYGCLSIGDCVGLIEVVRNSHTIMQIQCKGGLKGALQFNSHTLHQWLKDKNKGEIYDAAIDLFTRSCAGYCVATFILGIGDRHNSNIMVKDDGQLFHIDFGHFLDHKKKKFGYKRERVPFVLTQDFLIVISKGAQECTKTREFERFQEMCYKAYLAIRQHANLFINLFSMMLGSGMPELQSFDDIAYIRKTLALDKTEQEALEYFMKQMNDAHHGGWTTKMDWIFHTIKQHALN
Sequence of PI3K-alpha (P27986 whole entry partner, species assumed): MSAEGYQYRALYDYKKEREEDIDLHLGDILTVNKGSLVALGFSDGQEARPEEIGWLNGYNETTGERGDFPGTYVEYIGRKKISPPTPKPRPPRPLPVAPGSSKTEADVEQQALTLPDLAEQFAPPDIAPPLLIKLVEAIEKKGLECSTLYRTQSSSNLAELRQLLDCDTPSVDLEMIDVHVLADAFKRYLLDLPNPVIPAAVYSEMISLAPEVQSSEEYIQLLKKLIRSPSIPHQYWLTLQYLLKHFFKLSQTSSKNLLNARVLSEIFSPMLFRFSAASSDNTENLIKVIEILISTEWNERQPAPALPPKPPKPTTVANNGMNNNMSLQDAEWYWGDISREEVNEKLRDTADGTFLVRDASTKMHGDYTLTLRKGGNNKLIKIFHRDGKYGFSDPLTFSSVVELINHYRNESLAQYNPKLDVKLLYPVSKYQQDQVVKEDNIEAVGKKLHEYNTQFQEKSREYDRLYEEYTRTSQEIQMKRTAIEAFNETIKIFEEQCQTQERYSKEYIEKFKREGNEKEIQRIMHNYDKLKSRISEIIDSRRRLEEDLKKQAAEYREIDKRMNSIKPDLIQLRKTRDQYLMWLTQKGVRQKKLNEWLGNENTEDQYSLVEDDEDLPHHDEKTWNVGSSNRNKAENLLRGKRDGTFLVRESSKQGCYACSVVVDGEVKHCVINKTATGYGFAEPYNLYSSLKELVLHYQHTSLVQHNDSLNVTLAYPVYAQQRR
Turning to `CNC(=O)Oc1ccc2c(c1)C(=O)/C(=C/c1cn(CCN3CCN(C)CC3)c3ccc(OC)cc13)O2` [Compound 546, (2Z)-2-({5-methoxy-1-[2-(4-methylpiperazin-1-yl)ethyl]-1H-indol-3-yl}methylene)-3-oxo-2,3-dihydro-1-benzofuran-5-yl methylcarbamate], the IC50 came out at 0.63 µM.

Still in this experiment, the particulars now being: read-out: PI3Kα Avg. IC50.
Turning to `Cc1cccc2c(/C=C3\Sc4ccccc4C3=O)c[nH]c12` [Example 280, (2Z)-2-[(7-methyl-1H-indol-3-yl)methylene]-1-benzothiophen-3(2H)-one], the half-inhibitory concentration (IC50) was found to be 4.56 µM.
Same read-out and setting: then `COc1cccc2c1OC(=Cc1c(-c3ccccc3)[nH]c3ccccc13)C2=O` [Example 10, 7-methoxy-2-[(2-phenyl-1H-indol-3-yl)methylene]-1-benzofuran-3(2H)-one], with greater than 10 µM.
Still for that read-out and setting: then `COc1cccc2c1O/C(=C\c1c(-c3ccc(Cl)cc3)[nH]c3ccccc13)C2=O` [Example 35, (2Z)-2-{[2-(4-chlorophenyl)-1H-indol-3-yl]methylene}-7-methoxy-1-benzofuran-3(2H)-one], with 1.94 µM.
On the same count and under the same terms, then `COc1ccc2c(c1)c(C=C1Oc3c(ccc(O)c3O)C1=O)c(C)n2CCCCN1CCOCC1` [Example 145, 6,7-dihydroxy-2-{[5-methoxy-2-methyl-1-(4-morpholin-4-ylbutyl)-1H-indol-3-yl]methylene}-1-benzofuran-3(2H)-one], with 0.825 µM; and `Cn1cc(/C=C2\Oc3c(ccc(O)c3O)C2=O)c2ccccc21` [Example 57, (2Z)-6,7-dihydroxy-2-[(1-methyl-1H-indol-3-yl)methylene]-1-benzofuran-3(2H)-one], with 4.5 µM.
With `Cc1ccc2c(c1)C(=O)C(=Cc1cn(C)c3ccccc13)S2` [Example 299, 5-methyl-2-[(1-methyl-1H-indol-3-yl)methylene]-1-benzothiophen-3(2H)-one], the half-inhibitory concentration (IC50) was greater than 10 µM.
`COc1ccc2c(c1)c(C=C1Oc3c(ccc(O)c3O)C1=O)cn2C` [Example 85, 6,7-dihydroxy-2-[(5-methoxy-1-methyl-1H-indol-3-yl)methylene]-1-benzofuran-3(2H)-one]: the concentration for half-maximal inhibition (IC50) was determined as 1.15 µM.
Same read-out and setting: then `COc1cccc2c1OC(=Cc1cn(C)c3ccccc13)C2=O` [Example 12, 7-methoxy-2-[(1-methyl-1H-indol-3-yl)methylene]-1-benzofuran-3(2H)-one], with greater than 10 µM.
Consider `O=C1C(=Cc2c[nH]c3ccccc23)Oc2ccccc21` [Example 1, 2-(1H-indol-3-ylmethylene)-1-benzofuran-3(2H)-one], for which the IC50 was greater than 10 µM.
For the compound `Cc1ccc2c(c1)C(=O)/C(=C/c1c[nH]c3cc(C)ccc13)S2` [Example 292, (2Z)-5-methyl-2-[(6-methyl-1H-indol-3-yl)methylene]-1-benzothiophen-3(2H)-one], the IC50 was greater than 10 µM.
On the same count and under the same terms, then `COc1cccc2c1O/C(=C\c1cn(Cc3ccccc3)c3ccccc13)C2=O` [Example 42, (2Z)-2-[(1-benzyl-1H-indol-3-yl)methylene]-7-methoxy-1-benzofuran-3(2H)-one], with greater than 10 µM.
With `O=C1/C(=C/c2cn(Cc3ccccc3)c3ccccc23)Sc2ccc(Cl)cc21` [Example 287, (2Z)-2-[(1-benzyl-1H-indol-3-yl)methylene]-5-chloro-1-benzothiophen-3(2H)-one], the IC50 is greater than 10 µM.
Regarding `Cc1[nH]c2ccc([N+](=O)[O-])cc2c1/C=C1\Oc2cc(O)ccc2C1=O` [Example 29, (2Z)-6-hydroxy-2-[(2-methyl-5-nitro-1H-indol-3-yl)methylene]-1-benzofuran-3(2H)-one], the 50% inhibitory concentration (IC50) was greater than 10 µM.
Still for that read-out and setting: then `O=C1/C(=C/c2c[nH]c3ccccc23)Sc2ccccc21` [Example 273, (2Z)-2-(1H-indol-3-ylmethylene)-1-benzothiophen-3(2H)-one], with 9.62 µM; and `COc1ccc2c(c1)c(/C=C1\Oc3ccc(Br)cc3C1=O)cn2CCCN(C)C` [Compound 516, (2Z)-5-bromo-2-({1-[3-(dimethylamino)propyl]-5-methoxy-1H-indol-3-yl}methylene)-1-benzofuran-3(2H)-one], with 9.75 µM; and `O=C1/C(=C/c2c[nH]c3ccccc23)Sc2ccc(Cl)cc21` [Example 281, (2Z)-5-chloro-2-(1H-indol-3-ylmethylene)-1-benzothiophen-3(2H)-one], with greater than 10 µM.
Same read-out and setting: then `Cc1[nH]c2ccccc2c1/C=C1\Oc2cc(O)ccc2C1=O` [Example 30, (2Z)-6-hydroxy-2-[(2-methyl-1H-indol-3-yl)methylene]-1-benzofuran-3(2H)-one], with 12.8 µM; and `Cc1ccc2c(c1)C(=O)/C(=C/c1c[nH]c3ccc(Br)cc13)S2` [Example 294, (2Z)-2-[(5-bromo-1H-indol-3-yl)methylene]-5-methyl-1-benzothiophen-3(2H)-one], with greater than 10 µM.
The same measure, in the same setting: the figure for `COc1ccc2c(c1)c(C=C1Oc3c(ccc(O)c3O)C1=O)c(C)n2CCCCN1CCN(CCO)CC1` [Example 146, 6,7-dihydroxy-2-[(1-{4-[4-(2-hydroxyethyl)piperazin-1-yl]butyl}-5-methoxy-2-methyl-1H-indol-3-yl)methylene]-1-benzofuran-3(2H)-one] is 0.85 µM; for `O=C1/C(=C/c2c[nH]c3ccc(F)cc23)Oc2c1ccc(O)c2O` [Example 64, (2Z)-2-[(5-fluoro-1H-indol-3-yl)methylene]-6,7-dihydroxy-1-benzofuran-3(2H)-one] it is 1.72 µM.
For `Cc1[nH]c2ccc([N+](=O)[O-])cc2c1/C=C1\Oc2ccccc2C1=O` [Example 20, (2Z)-2-[(2-methyl-5-nitro-1H-indol-3-yl)methylene]-1-benzofuran-3(2H)-one], the IC50 was greater than 10 µM.
`Cc1ccc2c(c1)C(=O)/C(=C/c1c(-c3ccccc3)[nH]c3ccccc13)S2` [Example 290, (2Z)-5-methyl-2-[(2-phenyl-1H-indol-3-yl)methylene]-1-benzothiophen-3(2H)-one]: the IC50 amounted to 9.17 µM.
`O=C1/C(=C/c2c(-c3ccc4ccccc4c3)[nH]c3ccccc23)Oc2cc(O)ccc21` [Example 27, (2Z)-6-hydroxy-2-{[2-(2-naphthyl)-1H-indol-3-yl]methylene}-1-benzofuran-3(2H)-one]: the 50% inhibitory concentration (IC50) was found to be 5.47 µM.
The same measure, in the same setting: the figure for `O=C1/C(=C/c2c[nH]c3ccc(Br)cc23)Oc2cc(O)ccc21` [Example 32, (2Z)-2-[(5-bromo-1H-indol-3-yl)methylene]-6-hydroxy-1-benzofuran-3(2H)-one] is 6.47 µM; for `O=C1/C(=C/c2cn(Cc3ccccc3)c3ccccc23)Oc2ccccc21` [Example 25, (2Z)-2-[(1-benzyl-1H-indol-3-yl)methylene]-1-benzofuran-3(2H)-one] it is greater than 10 µM.
With `Cc1ccc2c(c1)C(=O)C(=Cc1c(-c3ccc4ccccc4c3)[nH]c3ccccc13)S2` [Example 296, 5-methyl-2-{[2-(2-naphthyl)-1H-indol-3-yl]methylene}-1-benzothiophen-3(2H)-one], the concentration for half-maximal inhibition (IC50) turned out to be 12 µM.
Same read-out and setting: then `Cc1cccc2c1c(/C=C1\Oc3cc(O)cc(O)c3C1=O)c(-c1ccccn1)n2C` [Compound 477, (2Z)-2-[(1,4-dimethyl-2-pyridin-2-yl-1H-indol-3-yl)methylene]-4,6-dihydroxy-1-benzofuran-3(2H)-one], with 1.12 µM.
